Measured values taken from US8815950B2, “Pharmaceutical compositions and method of using levodopa and carbidopa” (Janssen Biotech, Inc., priority 2003, dated 2014).
Values after ≈ are worked out from the molar mass of the structure shown. Read-outs that look alike come from different tables or passages of the source.

Experiments:
Assay type in all cases: physicochemical
[1] = Stability of levodopa and carbidopa solutions, HPLC potency test
Description: A formulation of: […] This powder mixture was dissolved in water at a concentration of 5.5 mg/ml of levodopa. This solution was filter through a 0.22 micrometer filter (with PVDF membrane) and then stored at temperatures of 4 degrees C., 25 degrees C. and 40 degrees C. […] This powder mixture was dissolved in water at concentration of 1.0 mg/ml of levodopa. This solution was filtered through a 0.22 micrometer filter (with PVDF membrane) and then stored at temperatures of 4 degrees C., 25 degrees C. and 40 degrees C. The sample solutions were submitted for HPLC potency test at each time point. The stability was monitored in percentage change compared to the initial potency.

[2] = Solubility of levodopa in citrate buffer at varying pH and buffer strength
Description: Solutions were made using Citric acid and tribasic Sodium Citrate dihydrate Initially a 1.0 M citric acid solution was made by weighing out 19.2 g Citric acid (FW 192.1) into a 100 mL volumetric flask and diluting with HPLC grade water. This was repeated with the Sodium Citrate (FW 294.1), by weighting out 29.4 g of sodium citrate in into a 100 mL volumetric flask and diluting to 100 mL with water. A series of 8 of 20 mL scintillation vials were then labeled and prepared as follows:
These pH adjustments were made with the sodium citrate (also 1.0 M) to keep a consistent molarity with the citrate. From these mother vials, 2 subsequent sets of solution were made for the molar concentrations 0.45 and 0.15 M. 0.45 M is for a 3:1 buffer and 0.15 M is for a 1:1 buffer. These solutions were also pH adjusted with molar equivalent solution to keep the pH value consistent throughout each dilution and after adding the levodopa.

[3] = Levodopa solubility in 3.5 mg/ml ascorbic acid solution; conditions: aqueous buffer, thermodynamic from solid, stirring 24 hour at RT, read-out: concentration of levodopa in the filtration (maximum solubility)
Description: Levedopa solubility in ascorbic acid solution an ascorbic acid concentration of 3.5 mg/ml was tested. A sample of 3.5 mg/ml ascorbic acid was made by adding 70.0 mg of ascorbic acid into 20 ml of water. Then, 80.0 mg of levodopa powder was dissolved into the 3.5 mg/ml ascorbic sample by stirring for 24 hour at RT. The projected levodopa concentration was 4 mg/ml. The sample was filtered through a 0.22μ PVDF filter to remove the insoluble levodopa. The filtration was assayed by HPLC at 10× dilution with water. The HPLC data indicated the concentration of levodopa in the filtration was 2.0 mg/ml.

[4] = Levodopa/Ascorbic/Carbidopa/at 1/3/0.2 at 4 C., 1 Day
[5] = Levodopa/Ascorbic/Carbidopa/at 1/3/0.2 at 4 C., 2 Day
[6] = Levodopa/Ascorbic/Carbidopa/at 1/3/0.2 at 4 C., 7 Day
[7] = Levodopa/Ascorbic/Carbidopa/at 1/3/0.2 at 4 C., Initial
[8] = Levodopa/Ascorbic/Carbidopa/at 1/3/0.2 at 25 C., 1 Day
[9] = Levodopa/Ascorbic/Carbidopa/at 1/3/0.2 at 25 C., 2 Day
[10] = Levodopa/Ascorbic/Carbidopa/at 1/3/0.2 at 25 C., 7 Day
[11] = Levodopa/Ascorbic/Carbidopa/at 1/3/0.2 at 25 C., Initial
[12] = Levodopa/Ascorbic/Carbidopa/at 1/3/0.2 at 40 C., 1 Day
[13] = Levodopa/Ascorbic/Carbidopa/at 1/3/0.2 at 40 C., 2 Day
[14] = Levodopa/Ascorbic/Carbidopa/at 1/3/0.2 at 40 C., 7 Day
[15] = Levodopa/Ascorbic/Carbidopa/at 1/3/0.2 at 40 C., Initial
[16] = Levodopa/Citric/Carbidopa/Sucrose at 1/3/0.2/1 at 4 C., 1 Day
[17] = Levodopa/Citric/Carbidopa/Sucrose at 1/3/0.2/1 at 4 C., 2 Day
[18] = Levodopa/Citric/Carbidopa/Sucrose at 1/3/0.2/1 at 4 C., 3 Day
[19] = Levodopa/Citric/Carbidopa/Sucrose at 1/3/0.2/1 at 4 C., 7 Day
[20] = Levodopa/Citric/Carbidopa/Sucrose at 1/3/0.2/1 at 4 C., Initial
[21] = Levodopa/Citric/Carbidopa/Sucrose at 1/3/0.2/1 at 25 C., 1 Day
[22] = Levodopa/Citric/Carbidopa/Sucrose at 1/3/0.2/1 at 25 C., 2 Day
[23] = Levodopa/Citric/Carbidopa/Sucrose at 1/3/0.2/1 at 25 C., 3 Day
[24] = Levodopa/Citric/Carbidopa/Sucrose at 1/3/0.2/1 at 25 C., 7 Day
[25] = Levodopa/Citric/Carbidopa/Sucrose at 1/3/0.2/1 at 25 C., Initial
[26] = Levodopa/Citric/Carbidopa/Sucrose at 1/3/0.2/1 at 40 C., 1 Day
[27] = Levodopa/Citric/Carbidopa/Sucrose at 1/3/0.2/1 at 40 C., 2 Day
[28] = Levodopa/Citric/Carbidopa/Sucrose at 1/3/0.2/1 at 40 C., 3 Day
[29] = Levodopa/Citric/Carbidopa/Sucrose at 1/3/0.2/1 at 40 C., 7 Day
[30] = Levodopa/Citric/Carbidopa/Sucrose at 1/3/0.2/1 at 40 C., Initial

C[C@@](Cc1ccc(O)c(O)c1)(NN)C(=O)O [Carbidopa]
HPLC potency, percentage compared to the initial potency [1, 4]: 101%
HPLC potency, percentage compared to the initial potency [1, 5]: 101%
HPLC potency, percentage compared to the initial potency [1, 6]: 101%
HPLC potency, percentage compared to the initial potency [1, 7]: 100%
HPLC potency, percentage compared to the initial potency [1, 8]: 99%
HPLC potency, percentage compared to the initial potency [1, 9]: 97%
HPLC potency, percentage compared to the initial potency [1, 10]: 87%
HPLC potency, percentage compared to the initial potency [1, 11]: 100%
HPLC potency, percentage compared to the initial potency [1, 12]: 94%
HPLC potency, percentage compared to the initial potency [1, 13]: 88%
HPLC potency, percentage compared to the initial potency [1, 14]: 88%
HPLC potency, percentage compared to the initial potency [1, 15]: 100%
HPLC potency, percentage compared to the initial potency [1, 16]: 100%
HPLC potency, percentage compared to the initial potency [1, 17]: 100%
HPLC potency, percentage compared to the initial potency [1, 18]: 101%
HPLC potency, percentage compared to the initial potency [1, 19]: 100%
HPLC potency, percentage compared to the initial potency [1, 20]: 100%
HPLC potency, percentage compared to the initial potency [1, 21]: 98%
HPLC potency, percentage compared to the initial potency [1, 22]: 96%
HPLC potency, percentage compared to the initial potency [1, 23]: 96%
HPLC potency, percentage compared to the initial potency [1, 24]: 91%
HPLC potency, percentage compared to the initial potency [1, 25]: 100%
HPLC potency, percentage compared to the initial potency [1, 26]: 91%
HPLC potency, percentage compared to the initial potency [1, 27]: 84%
HPLC potency, percentage compared to the initial potency [1, 28]: 81%
HPLC potency, percentage compared to the initial potency [1, 29]: 75%
HPLC potency, percentage compared to the initial potency [1, 30]: 100%

N[C@@H](Cc1ccc(O)c(O)c1)C(=O)O [Levodopa]
solubility ([2]; pH 1.5, aqueous buffer, Citrate buffer 0.15M pH1.5, read-out: Conc (levodopa solubility)): 7200 µg/mL (≈ 36.5 mM)
solubility ([2]; pH 1.5, aqueous buffer, Citrate buffer 0.45M pH1.5, read-out: Conc (levodopa solubility)): 11400 µg/mL (≈ 57.8 mM)
solubility ([2]; pH 1.5, aqueous buffer, Citrate buffer 1.0M pH 1.5, read-out: Conc (levodopa solubility)): 17900 µg/mL (≈ 90.9 mM)
solubility ([2]; pH 2.5, aqueous buffer, Citrate buffer 0.15M pH2.5, read-out: Conc (levodopa solubility)): 4870 µg/mL (≈ 24.7 mM)
solubility ([2]; pH 2.5, aqueous buffer, Citrate buffer 0.45M pH2.5, read-out: Conc (levodopa solubility)): 5820 µg/mL (≈ 29.5 mM)
solubility ([2]; pH 2.5, aqueous buffer, Citrate buffer 1.0M pH 2.5, read-out: Conc (levodopa solubility)): 7430 µg/mL (≈ 37.7 mM)
solubility ([2]; pH 3, aqueous buffer, Citrate buffer 0.15M pH3.0, read-out: Conc (levodopa solubility)): 4210 µg/mL (≈ 21.3 mM)
solubility ([2]; pH 3, aqueous buffer, Citrate buffer 0.45M pH3.0, read-out: Conc (levodopa solubility)): 4850 µg/mL (≈ 24.6 mM)
solubility ([2]; pH 3, aqueous buffer, Citrate buffer 1.0M pH 3.0, read-out: Conc (levodopa solubility)): 5930 µg/mL (≈ 30.1 mM)
solubility ([2]; pH 3.5, aqueous buffer, Citrate buffer 0.15M pH3.5, read-out: Conc (levodopa solubility)): 3900 µg/mL (≈ 19.8 mM)
solubility ([2]; pH 3.5, aqueous buffer, Citrate buffer 0.45M pH3.5, read-out: Conc (levodopa solubility)): 4510 µg/mL (≈ 22.9 mM)
solubility ([2]; pH 3.5, aqueous buffer, Citrate buffer 1.0M pH 3.5, read-out: Conc (levodopa solubility)): 5230 µg/mL (≈ 26.5 mM)
solubility ([2]; pH 4, aqueous buffer, Citrate buffer 0.15M pH4.0, read-out: Conc (levodopa solubility)): 3790 µg/mL (≈ 19.2 mM)
solubility ([2]; pH 4, aqueous buffer, Citrate buffer 0.45M pH4.0, read-out: Conc (levodopa solubility)): 4250 µg/mL (≈ 21.6 mM)
solubility ([2]; pH 4, aqueous buffer, Citrate buffer 1.0M pH 4.0, read-out: Conc (levodopa solubility)): 4650 µg/mL (≈ 23.6 mM)
solubility ([2]; pH 4.5, aqueous buffer, Citrate buffer 0.15M pH4.5, read-out: Conc (levodopa solubility)): 3880 µg/mL (≈ 19.7 mM)
solubility ([2]; pH 4.5, aqueous buffer, Citrate buffer 0.45M pH4.5, read-out: Conc (levodopa solubility)): 4250 µg/mL (≈ 21.6 mM)
solubility ([2]; pH 4.5, aqueous buffer, Citrate buffer 1.0M pH 4.5, read-out: Conc (levodopa solubility)): 4440 µg/mL (≈ 22.5 mM)
solubility ([2]; pH 5, aqueous buffer, Citrate buffer 0.15M pH5.0, read-out: Conc (levodopa solubility)): 3880 µg/mL (≈ 19.7 mM)
solubility ([2]; pH 5, aqueous buffer, Citrate buffer 0.45M pH5.0, read-out: Conc (levodopa solubility)): 4150 µg/mL (≈ 21 mM)
solubility ([2]; pH 5, aqueous buffer, Citrate buffer 1.0M pH 5.0, read-out: Conc (levodopa solubility)): 4170 µg/mL (≈ 21.1 mM)
solubility ([2]; pH 6, aqueous buffer, Citrate buffer 0.15M pH6.0, read-out: Conc (levodopa solubility)): 3950 µg/mL (≈ 20 mM)
solubility ([2]; pH 6, aqueous buffer, Citrate buffer 0.45M pH6.0, read-out: Conc (levodopa solubility)): 4160 µg/mL (≈ 21.1 mM)
solubility ([2]; pH 6, aqueous buffer, Citrate buffer 1.0M pH 6.0, read-out: Conc (levodopa solubility)): 3870 µg/mL (≈ 19.6 mM)
HPLC potency, percentage compared to the initial potency [1, 4]: 100%
HPLC potency, percentage compared to the initial potency [1, 5]: 100%
HPLC potency, percentage compared to the initial potency [1, 6]: 102%
HPLC potency, percentage compared to the initial potency [1, 7]: 100%
HPLC potency, percentage compared to the initial potency [1, 8]: 100%
HPLC potency, percentage compared to the initial potency [1, 9]: 100%
HPLC potency, percentage compared to the initial potency [1, 10]: 102%
HPLC potency, percentage compared to the initial potency [1, 11]: 100%
HPLC potency, percentage compared to the initial potency [1, 12]: 100%
HPLC potency, percentage compared to the initial potency [1, 13]: 101%
HPLC potency, percentage compared to the initial potency [1, 14]: 104%
HPLC potency, percentage compared to the initial potency [1, 15]: 100%
HPLC potency, percentage compared to the initial potency [1, 16]: 100%
HPLC potency, percentage compared to the initial potency [1, 17]: 100%
HPLC potency, percentage compared to the initial potency [1, 18]: 100%
HPLC potency, percentage compared to the initial potency [1, 19]: 100%
HPLC potency, percentage compared to the initial potency [1, 20]: 100%
HPLC potency, percentage compared to the initial potency [1, 21]: 100%
HPLC potency, percentage compared to the initial potency [1, 22]: 100%
HPLC potency, percentage compared to the initial potency [1, 23]: 100%
HPLC potency, percentage compared to the initial potency [1, 24]: 100%
HPLC potency, percentage compared to the initial potency [1, 25]: 100%
HPLC potency, percentage compared to the initial potency [1, 26]: 100%
HPLC potency, percentage compared to the initial potency [1, 27]: 100%
HPLC potency, percentage compared to the initial potency [1, 28]: 100%
HPLC potency, percentage compared to the initial potency [1, 29]: 100%
HPLC potency, percentage compared to the initial potency [1, 30]: 100%
solubility at 24 h [3]: 2000 µg/mL (≈ 10.1 mM)
